From patent publication US20020039567A1, “Methods of treating bone or cartilage conditions by the administration of creatine” (priority 1998, published 2002)

Legend:
[1] = tested on: osteoblasts (monolayer culture); assay: Alkaline phosphatase activity (histochemically), monolayer osteoblast cell culture; format: cell-based, rat; details: 3 weeks
Procedure: This isolation technique is based on the ability of osteoblasts to migrate from bone onto a substratum. Parietal and frontal calvariae (4 per animal) were aseptically explanted from 6 day-old IcoIbm rats. The calvariae were placed in Tyrode's balanced salt solution, calcium and magnesium free (TESS). The periosteum was enzymatically removed with 0.05% trypsin and 0.02% collagenase A (0.76 U/mg) dissolved in TBSS (40 calvaria/20 ml). The calvariae were shaken for 70 minutes in a waterbath at 37° C. They were washed with TESS and then transferred to 60 mm culture dishes (40 calvariae/dish) containing 5 ml of 0.02% collagenase A (0.76 U/mg) in culture medium BGJb Fitton-Jackson modification and placed in the incubator for 4 hours. The calvariae were then washed with culture medium B supplemented with 10% foetal calf serum (FCS). The calvariae were transferred into 60 mm culture dishes (4 frontal and 4 parietal/dish). The growth medium supplemented with 10% FCS and 50 μg/ml ascorbate was completely changed every 48 hours. The culture was kept for 3 weeks. After 3 weeks the migrated cells were harvested. The dish was washed with TESS, and 5 ml of TESS containing 0.05% trypsin and 0.02% collagenase A (0.76 U/mg) was added. […] The viability of the resuspended cells was examined by the dye exclusion of 0.4% trypan blue, and the cells were counted in a haeinocytometer. […]

[2] = tested on: osteoblasts (monolayer culture); assay: Cell viability (neutral red uptake), monolayer osteoblast cell culture; format: cell-based, rat
Procedure: This isolation technique is based on the ability of osteoblasts to migrate from bone onto a substratum. Parietal and frontal calvariae (4 per animal) were aseptically explanted from 6 day-old IcoIbm rats. The calvariae were placed in Tyrode's balanced salt solution, calcium and magnesium free (TESS). The periosteum was enzymatically removed with 0.05% trypsin and 0.02% collagenase A (0.76 U/mg) dissolved in TBSS (40 calvaria/20 ml). The calvariae were shaken for 70 minutes in a waterbath at 37° C. They were washed with TESS and then transferred to 60 mm culture dishes (40 calvariae/dish) containing 5 ml of 0.02% collagenase A (0.76 U/mg) in culture medium BGJb Fitton-Jackson modification and placed in the incubator for 4 hours. The calvariae were then washed with culture medium B supplemented with 10% foetal calf serum (FCS). The calvariae were transferred into 60 mm culture dishes (4 frontal and 4 parietal/dish). The growth medium supplemented with 10% FCS and 50 μg/ml ascorbate was completely changed every 48 hours. The culture was kept for 3 weeks.
After 3 weeks the migrated cells were harvested. The dish was washed with TESS, and 5 ml of TESS containing 0.05% trypsin and 0.02% collagenase A (0.76 U/mg) was added. After 1 hour in the incubator, the dish was washed with culture medium BGJb supplemented with 10% FCS. The dishes containing the calvariae and cells were rinsed with serum containing media BGJb. The cells obtained were filtered through a 40 μm nylon mesh to remove bone debris and cell aggregates. The suspended cells were centrifuged at 600 g for 5 minutes. The cell pellet was resuspended in serum containing medium BGJb and centrifuged. The viability of the resuspended cells was examined by the dye exclusion of 0.4% trypan blue, and the cells were counted in a haeinocytometer. The inoculation densities were 2·10^5/10 cm^2 for monolayer and 2·10^5/30 μl for micromasses. The micromass cultures were kept for 1 hour in the incubator before 2 ml growth medium was added.
All the cultures were kept at 37° C. in a humidified atmosphere of 5% CO2, 95% air. All culture media were supplemented with 50 μg/ml ascorbate. To analyze the collagen types, 60 μg/ml beta-aminopropionitrile (beta-APN) was added to the culture medium. During cell isolation and inoculation, no ascorbate was used to increase plating efficiency. No antibiotics and no beta-glycerophosphate were added. The media were completely changed every 48 hours (60 mm culture dish 5 ml; 35 mm culture dish 2 ml).
The method described in (Lindl et al. 1994) was used.
The uptake of NR into lysosomes is […] the metabolic status of the cell.
0.5 mg Neutral red/ml growth medium, warmed up to 37° C. for at least 2 hours,
50% ethanol in 1% acetic acid
1. The cells were incubated in 2 ml/10 cm^2NR solution at 37° C. for 3 hours.
2. The supernatant was removed,
3. washed with PBS, at least 3 times, until no crystals were present.
4. Addition of 4 ml/10 cm^2 extraction buffer.
5. The absorbance of the supernatant (3 aliquots/dish) was read at 540 nm versus extraction buffer.
6. If the absorbance was higher than 1, the samples were diluted with extraction buffer.
The mean value and the standard deviation consisted of n independent experiments. The values for the individual experiments were gained from the mean of 3 aliquots of the same dish. To compare the treatment, contrasts analysis of variance models were evaluated.

embryonic chick femora = details: cited from earlier work

Structure (SMILES)	cell density around the nodules ([1]; GPA groups)	staining pattern for the ALP activity ([1]; higher magnification, compared with control and creatine groups)	NR uptake (FIG. 1) ([2]; 10 mM and 20 mM creatine vs control, 1 and 2 weeks)	toxic effect (from NR uptake) ([2]; 10 mM creatine)	NR uptake (FIG. 1), difference to control ([2]; 10 mM creatine vs control, 3 weeks)	NR uptake (FIG. 1) ([2]; 10 mM creatine, 3 weeks compared to 1 week, p<0.02)	NR uptake (FIG. 1) ([2]; 20 mM creatine vs control, 3 weeks, p<0.008)	toxic effect (from NR uptake) ([2]; 20 mM creatine, 3 weeks)	perichondral ossification in the diaphysis (embryonic chick femora; 0.1 mM in chick embryo extract with 20% horse serum)	deposition of calcium in the cartilage matrix of the epiphysis (embryonic chick femora; very crude preparations at 0.1 mM in chick embryo extract with 20% horse serum)
N=C(N)NCCC(=O)O [GPA, beta-guanidinopropionic acid]	lower than in the control and the creatine groups	different staining pattern								
CN(CC(=O)O)C(=N)N [creatine]			no significant difference between the groups	no toxic effect	not significant	significantly higher	significantly lowered NR uptake	some toxic effects on the proliferation of the cells	accelerated	accelerated
